From patent US20220194960A1, “WEE1 INHIBITOR AND PREPARATION AND USE THEREOF” (SHOUYAO HOLDINGS (BEIJING) CO., LTD., priority 2019, published 2022) come the findings set out here.

Series [1] in a line: Animal pharmacokinetic studies in rats. The series is classed as in vivo. Conditions: male rats, 5 mg/kg single intragastric administration, plasma. On the procedure: 3. Animal Pharmacokinetic Studies of Compounds:
Animal pharmacokinetic experiments were conducted with 3 healthy adult male rats from Beijing Vital River Laboratory Animal Technology Co., Ltd. The compound was suspended in a 20% solution of sulfobutyl ether-β-cyclodextrin (W/W/V) at a concentration of 1 mg/mL, The rats were subjected to 5 mg/kg suspension of the compound by single intragastric administration with a dosing volume of 5 mL/kg. Animals were fasted overnight prior to the experiment from 10 h before dosing to 4 h alter dosing. Blood was collected 0.25, 0.5, 1, 2, 4, 6, 8 and 24 h after administration. Animals were lightly anesthetized with isoflurane, and approximately 0.4 ml, of whole blood was collected from the orbital venous plexus with a glass blood collection tube, placed in a heparin anticoagulant tube, centrifuged at 4200 rpm for 5 min at 4° C., plasma transferred to the centrifuge tube, and stored at −80° C. until analysis. Test compounds extracted from rat plasma using acetonitrile protein precipitation and internal standard (Warfarin or Propranolol) were used for Plasma sample analysis, and the extracts were analyzed by LC/MS/MS. The measured plasma concentration-time data for individual animals were analyzed using non-compartmental model of WinNonlin (version 5.2.1; Pharsight) software to obtain the following pharmacokinetic parameters: maximum (peak) plasma drug concentration Cmax; a peak time Tmax; half-life T1/2 and the area under the plasma concentration-time curve front time 0 extrapolated to infinite time AUC0-inf.

The target in the next series is T1, WEE1 kinase (Homo sapiens, UniProt P30291).
T1 construct: purchased Carna bioscience
Put plainly: WEE1 kinase binding assay (LanthaScreen EU). The note with it: WEE1 kinase 20 nM, Kinase Tracer 178 100 nM, 23° C. for 60 min, read-out: WEEI (IC50). (In general: TR-FRET usually uses a lanthanide donor and a delayed reading to cut background.)

Like-named read-outs stand apart in the source and are kept apart here.

T1 sequence (P30291 whole entry): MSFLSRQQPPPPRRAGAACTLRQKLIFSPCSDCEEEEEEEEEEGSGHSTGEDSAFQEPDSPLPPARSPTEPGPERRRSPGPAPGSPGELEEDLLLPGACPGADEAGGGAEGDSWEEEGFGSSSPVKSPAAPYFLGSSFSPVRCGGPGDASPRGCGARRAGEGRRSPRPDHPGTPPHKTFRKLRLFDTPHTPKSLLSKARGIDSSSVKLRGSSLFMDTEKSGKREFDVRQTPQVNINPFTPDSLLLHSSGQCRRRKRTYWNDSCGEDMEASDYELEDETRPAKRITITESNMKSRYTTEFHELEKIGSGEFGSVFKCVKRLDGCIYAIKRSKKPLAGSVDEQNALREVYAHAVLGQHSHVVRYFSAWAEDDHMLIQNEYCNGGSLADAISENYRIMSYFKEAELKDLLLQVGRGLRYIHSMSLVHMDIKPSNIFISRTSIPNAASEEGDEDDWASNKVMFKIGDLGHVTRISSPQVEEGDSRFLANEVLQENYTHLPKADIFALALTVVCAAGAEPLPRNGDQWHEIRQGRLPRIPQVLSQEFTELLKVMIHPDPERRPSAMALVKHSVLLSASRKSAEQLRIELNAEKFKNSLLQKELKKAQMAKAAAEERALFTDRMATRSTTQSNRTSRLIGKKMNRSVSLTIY

Consider `CN1CCN(c2ccc(Nc3ncc4c(F)c(C5CC5)n(-c5cccc(C(C)(C)O)n5)c4n3)cc2)CC1` [Example 57, 2-(6-(2-((4-(4-methylpiperazin-1-yl)phenyl)amino)-5-fluoro-6-cyclopropyl-7H-pyrrolo[2,3-d]pyrimidin-7-yl)pyridin-2-yl)propan-2-ol], for which, in series [1] (rat, po), the half-life was 11.2 h. Besides, the AUC(0-inf) in series [1] (rat, po, read-out: AUC0-inf) came out at 1080 ng·h/mL. Also, the Cmax in series [1] (rat, po, read-out: Cmax) is 68 ng/mL. Besides, the time to peak (Tmax) in series [1] (rat, po, read-out: Tmax) was determined as 2.3 h.
On to `CN1CCN(C2CCN(c3ccc(Nc4ncc5c(F)c(C6CC6)n(-c6cccc(C(C)(C)O)n6)c5n4)cc3)CC2)CC1` [Example 58, 2-(6-(2-((4-(4-(4-methylpiperazin-1-yl)piperidin-1-yl)phenyl)amino)-5-fluoro-6-cyclopropyl-7H-pyrrolo[2,3-d]pyrimidin-7-yl)pyridin-2-yl)propan-2-ol], for which, in series [1], the AUC(0-inf) stood at 1751 ng·h/mL, the Cmax stood at 83 ng/mL, the T1/2 came to 10.9 h and the time of peak concentration (Tmax) was 6.0 h.
Turning to `CN1CCN(C2CCN(c3ccc(Nc4ncc5cc(C6CC6)n(-c6cccc(C(C)(C)O)n6)c5n4)cc3F)CC2)CC1` [Example 77, 2-(6-(2-((3-fluoro-4 (4-(4-methylpiperazin-1-yl)piperidin-1-yl)phenyl)amino)-6-cyclopropyl-7H-pyrrolo[2,3-d]pyrimidin-7-yl)pyridin-2-yl)propan-2-ol], the half-life in series [1] (rat, po) is 13.6 h. In series [1] (rat, po, read-out: AUC0-inf), the AUC(0-inf) was determined as 2340 ng·h/mL. For the same compound, the maximum concentration (Cmax) in series [1] (rat, po, read-out: Cmax) stood at 98 ng/mL. Further, in series [1] (rat, po, read-out: Tmax), the Tmax was found to be 5.33 h.
As to `CCCc1cc2cnc(Nc3ccc(N4CCC5(CCN(C)CC5)CC4)cc3)nc2n1-c1cccc(C(C)(C)O)n1` [Example 124, 2-(6-(6-propyl-2-((4-(9-methyl-3,9-diazaspiro[5.5]undecan-3-yl)phenyl)amino)-7H-pyrrolo[2,3-d]pyrimidin-7-yl)pyridin-2-yl)propan-2-ol], the IC50 at WEE1 kinase was found to be 1.03 nM. In series [1], the AUC(0-inf) worked out at 4066 ng·h/mL, the maximum concentration (Cmax) turned out to be 163 ng/mL, the T1/2 worked out at 19.2 h and the Tmax worked out at 4.8 h.
The compound `Cc1cc2cnc(Nc3ccc(N4CCC(N5CCN(C)CC5)CC4)cc3)nc2n1-c1cccc(C(C)(C)O)n1` [Example 148, 2-(6-(6-methyl-2-((4-(4-(4-methylpiperazin-1-yl)piperidin-1-yl)phenyl)amino)-7H-pyrrolo[2,3-d]pyrimidin-7-yl)pyridin-2-yl)propan-2-ol] had a half-life in series [1] (rat, po) of 9.2 h. In addition, in series [1] (rat, po, read-out: AUC0-inf), the AUC(0-inf) was determined as 1100 ng·h/mL. Further, the Cmax in series [1] (rat, po, read-out: Cmax) stood at 64 ng/mL. In addition, in series [1] (rat, po, read-out: Tmax), the Tmax stood at 5.4 h.

By half-life is commonly meant the time needed for the level to fall by half in the phase considered. Lower therefore signals fast loss. By Cmax is commonly meant the maximum level reached in the sampled fluid or tissue. What is called Tmax is the time at which the peak concentration occurs. In general, IC50 refers to the concentration that gives 50% inhibition.
